Laboratory results published in the NIST ThermoML archive (doi:10.1021/je060271a).
Values joined by “and” are separate entries in the source; they are usually repeats but may differ in a detail not shown here. Equal values may be shown once. Numbers after ± are expanded uncertainties.

Details: 343.15 K, Liquid, Vibrating tube method

CCCCCCC(=O)OCC(COC(=O)CCCCCC)(COC(=O)CCCCCC)COC(=O)CCCCCC [pentaerythritol tetraheptanoate]
Details	mass density
13341 kPa	950.4 ± 1.2 kg/m3
13372 kPa	950.4 ± 1.2 kg/m3
13408 kPa	950.3 ± 1.2 kg/m3
13431 kPa	950.4 ± 1.2 kg/m3
13453 kPa	950.5 ± 1.2 kg/m3
13478 kPa	950.4 ± 1.2 kg/m3
13499 kPa	950.4 ± 1.2 kg/m3
13521 kPa	950.4 ± 1.2 kg/m3
13546 kPa	950.5 ± 1.2 kg/m3
13567 kPa	950.5 ± 1.2 kg/m3
13589 kPa	950.5 ± 1.2 kg/m3
13615 kPa	950.5 ± 1.2 kg/m3
13637 kPa	950.5 ± 1.2 kg/m3
13658 kPa	950.6 ± 1.2 kg/m3
13661 kPa	950.5 ± 1.2 kg/m3
13675 kPa	950.6 ± 1.2 kg/m3
13680 kPa	950.6 ± 1.2 kg/m3
13707 kPa	950.6 ± 1.2 kg/m3
13729 kPa	950.6 ± 1.2 kg/m3
13751 kPa	950.7 ± 1.2 kg/m3
13779 kPa	950.6 ± 1.2 kg/m3
13801 kPa	950.7 ± 1.2 kg/m3
13824 kPa	950.7 ± 1.2 kg/m3
13831 kPa	950.7 ± 1.2 kg/m3
13845 kPa	950.8 ± 1.2 kg/m3
13850 kPa	950.6 ± 1.2 kg/m3
13858 kPa	950.8 ± 1.2 kg/m3
13872 kPa	950.8 ± 1.2 kg/m3
13895 kPa	950.8 ± 1.2 kg/m3
13922 kPa	950.8 ± 1.2 kg/m3
13944 kPa	950.7 ± 1.2 kg/m3
13968 kPa	950.8 ± 1.2 kg/m3
13995 kPa	950.8 ± 1.2 kg/m3
14018 kPa	950.9 ± 1.2 kg/m3
14041 kPa	950.8 ± 1.2 kg/m3
14069 kPa	950.8 ± 1.2 kg/m3
14093 kPa	950.9 ± 1.2 kg/m3
14116 kPa	950.9 ± 1.2 kg/m3
14140 kPa	950.9 ± 1.2 kg/m3
14168 kPa	950.9 ± 1.2 kg/m3
14191 kPa	950.9 ± 1.2 kg/m3
14215 kPa	951 ± 1.2 kg/m3
14244 kPa	951 ± 1.2 kg/m3
14267 kPa	950.8 ± 1.2 kg/m3
14296 kPa	951 ± 1.2 kg/m3
14320 kPa	951.1 ± 1.2 kg/m3
14344 kPa	951.1 ± 1.2 kg/m3
14368 kPa	951 ± 1.2 kg/m3
14397 kPa	951.1 ± 1.2 kg/m3
14398 kPa	951.2 ± 1.2 kg/m3
14410 kPa	951.1 ± 1.2 kg/m3
14423 kPa	951 ± 1.2 kg/m3
14427 kPa	951.1 ± 1.2 kg/m3
14440 kPa	951.1 ± 1.2 kg/m3
14447 kPa	951.2 ± 1.2 kg/m3
14454 kPa	951 ± 1.2 kg/m3
14468 kPa	951.1 ± 1.2 kg/m3
14477 kPa	951.2 ± 1.2 kg/m3
14482 kPa	951.2 ± 1.2 kg/m3
14495 kPa	951 ± 1.2 kg/m3
14502 kPa	951.1 ± 1.2 kg/m3
14512 kPa	951.2 ± 1.2 kg/m3
14526 kPa	951.1 ± 1.2 kg/m3
14556 kPa	951 ± 1.2 kg/m3
14581 kPa	951.2 ± 1.2 kg/m3
14606 kPa	951.1 ± 1.2 kg/m3
14632 kPa	951.3 ± 1.2 kg/m3
14662 kPa	951.1 ± 1.2 kg/m3
14688 kPa	951.2 ± 1.2 kg/m3
14714 kPa	951.3 ± 1.2 kg/m3
14744 kPa	951.3 ± 1.2 kg/m3
14771 kPa	951.3 ± 1.2 kg/m3
14797 kPa	951.4 ± 1.2 kg/m3
14823 kPa	951.4 ± 1.2 kg/m3
14855 kPa	951.2 ± 1.2 kg/m3
14880 kPa	951.4 ± 1.2 kg/m3
14907 kPa	951.3 ± 1.2 kg/m3
14939 kPa	951.4 ± 1.2 kg/m3
14965 kPa	951.4 ± 1.2 kg/m3
14992 kPa	951.5 ± 1.2 kg/m3
15024 kPa	951.5 ± 1.2 kg/m3
15051 kPa	951.6 ± 1.2 kg/m3
15078 kPa	951.7 ± 1.2 kg/m3
15112 kPa	951.6 ± 1.2 kg/m3
15135 kPa	951.6 ± 1.2 kg/m3
15168 kPa	951.5 ± 1.2 kg/m3
15196 kPa	951.6 ± 1.2 kg/m3
15230 kPa	951.7 ± 1.2 kg/m3
15257 kPa	951.6 ± 1.2 kg/m3
15284 kPa	951.8 ± 1.2 kg/m3
15310 kPa	951.7 ± 1.2 kg/m3
15337 kPa	951.7 ± 1.2 kg/m3
15354 kPa	951.7 ± 1.2 kg/m3
15378 kPa	951.7 ± 1.2 kg/m3
15402 kPa	951.8 ± 1.2 kg/m3
15423 kPa	951.8 ± 1.2 kg/m3
15449 kPa	951.7 ± 1.2 kg/m3
15466 kPa	951.8 ± 1.2 kg/m3
15491 kPa	951.8 ± 1.2 kg/m3
15511 kPa	951.8 ± 1.2 kg/m3
15531 kPa	951.9 ± 1.2 kg/m3
15556 kPa	951.9 ± 1.2 kg/m3
15577 kPa	952 ± 1.2 kg/m3
15598 kPa	951.9 ± 1.2 kg/m3
15623 kPa	952.1 ± 1.2 kg/m3
15643 kPa	951.9 ± 1.2 kg/m3
15664 kPa	951.9 ± 1.2 kg/m3
15689 kPa	951.9 ± 1.2 kg/m3
15710 kPa	951.9 ± 1.2 kg/m3
15732 kPa	951.9 ± 1.2 kg/m3
15753 kPa	952.1 ± 1.2 kg/m3
15778 kPa	952.1 ± 1.2 kg/m3
15800 kPa	952 ± 1.2 kg/m3
15817 kPa	952.1 ± 1.2 kg/m3
15847 kPa	952.1 ± 1.2 kg/m3
15868 kPa	952.2 ± 1.2 kg/m3
15890 kPa	952.1 ± 1.2 kg/m3
15916 kPa	952.2 ± 1.2 kg/m3
15938 kPa	952.1 ± 1.2 kg/m3
15964 kPa	952.1 ± 1.2 kg/m3
15985 kPa	952.1 ± 1.2 kg/m3
16008 kPa	952.2 ± 1.2 kg/m3
16034 kPa	952.2 ± 1.2 kg/m3
16056 kPa	952.2 ± 1.2 kg/m3
16079 kPa	952.2 ± 1.2 kg/m3
16101 kPa	952.2 ± 1.2 kg/m3
16128 kPa	952.2 ± 1.2 kg/m3
16151 kPa	952.3 ± 1.2 kg/m3
16174 kPa	952.3 ± 1.2 kg/m3
16200 kPa	952.4 ± 1.2 kg/m3
16223 kPa	952.3 ± 1.2 kg/m3
16246 kPa	952.4 ± 1.2 kg/m3
16269 kPa	952.4 ± 1.2 kg/m3
16297 kPa	952.4 ± 1.2 kg/m3
16320 kPa	952.5 ± 1.2 kg/m3
16344 kPa	952.5 ± 1.2 kg/m3
16367 kPa	952.5 ± 1.2 kg/m3
16395 kPa	952.6 ± 1.2 kg/m3
16418 kPa	952.5 ± 1.2 kg/m3
16446 kPa	952.4 ± 1.2 kg/m3
16469 kPa	952.5 ± 1.2 kg/m3
16493 kPa	952.7 ± 1.2 kg/m3
16516 kPa	952.5 ± 1.2 kg/m3
16545 kPa	952.7 ± 1.2 kg/m3
16569 kPa	952.6 ± 1.2 kg/m3
16588 kPa	952.6 ± 1.2 kg/m3
16616 kPa	952.6 ± 1.2 kg/m3
16640 kPa	952.6 ± 1.2 kg/m3
16669 kPa	952.7 ± 1.2 kg/m3
16698 kPa	952.5 ± 1.2 kg/m3
16723 kPa	952.7 ± 1.2 kg/m3
16747 kPa	952.8 ± 1.2 kg/m3
16771 kPa	952.8 ± 1.2 kg/m3
16800 kPa	952.8 ± 1.2 kg/m3
16825 kPa	952.8 ± 1.2 kg/m3
16854 kPa	952.8 ± 1.2 kg/m3
16879 kPa	952.8 ± 1.2 kg/m3
16882 kPa	952.8 ± 1.2 kg/m3
16904 kPa	953 ± 1.2 kg/m3
16933 kPa	952.8 ± 1.2 kg/m3
16958 kPa	952.8 ± 1.2 kg/m3
16983 kPa	952.9 ± 1.2 kg/m3
17013 kPa	952.9 ± 1.2 kg/m3
17038 kPa	952.9 ± 1.2 kg/m3
17064 kPa	953.1 ± 1.2 kg/m3
17089 kPa	952.9 ± 1.2 kg/m3
17120 kPa	952.9 ± 1.2 kg/m3
17145 kPa	953 ± 1.2 kg/m3
17176 kPa	952.9 ± 1.2 kg/m3
17202 kPa	952.9 ± 1.2 kg/m3
17228 kPa	952.9 ± 1.2 kg/m3
17254 kPa	953.1 ± 1.2 kg/m3
17285 kPa	953 ± 1.2 kg/m3
17312 kPa	953.1 ± 1.2 kg/m3
17340 kPa	953 ± 1.2 kg/m3
17368 kPa	953 ± 1.2 kg/m3
17394 kPa	953.2 ± 1.2 kg/m3
17426 kPa	953.1 ± 1.2 kg/m3
17453 kPa	953.1 ± 1.2 kg/m3
17463 kPa	953.2 ± 1.2 kg/m3
17480 kPa	953.2 ± 1.2 kg/m3
17483 kPa	953.2 ± 1.2 kg/m3
17507 kPa	953.3 ± 1.2 kg/m3
17512 kPa	953.2 ± 1.2 kg/m3
17528 kPa	953.2 ± 1.2 kg/m3
17538 kPa	953.2 ± 1.2 kg/m3
17548 kPa	953.1 ± 1.2 kg/m3
17566 kPa	953.2 ± 1.2 kg/m3
17572 kPa	953.3 ± 1.2 kg/m3
17598 kPa	953.3 ± 1.2 kg/m3
17625 kPa	953.3 ± 1.2 kg/m3
17652 kPa	953.3 ± 1.2 kg/m3
17686 kPa	953.1 ± 1.2 kg/m3
17709 kPa	953.4 ± 1.2 kg/m3
17742 kPa	953.3 ± 1.2 kg/m3
17770 kPa	953.4 ± 1.2 kg/m3
17798 kPa	953.4 ± 1.2 kg/m3
17831 kPa	953.5 ± 1.2 kg/m3
17859 kPa	953.5 ± 1.2 kg/m3
17882 kPa	953.5 ± 1.2 kg/m3
17887 kPa	953.4 ± 1.2 kg/m3
17921 kPa	953.4 ± 1.2 kg/m3
17949 kPa	953.5 ± 1.2 kg/m3 and 953.6 ± 1.2 kg/m3
17971 kPa	953.5 ± 1.2 kg/m3
17978 kPa	953.5 ± 1.2 kg/m3
17993 kPa	953.6 ± 1.2 kg/m3
18012 kPa	953.5 ± 1.2 kg/m3
18019 kPa	953.6 ± 1.2 kg/m3
18040 kPa	953.4 ± 1.2 kg/m3
18075 kPa	953.5 ± 1.2 kg/m3
18104 kPa	953.5 ± 1.2 kg/m3
18133 kPa	953.6 ± 1.2 kg/m3
18161 kPa	953.6 ± 1.2 kg/m3
18196 kPa	953.5 ± 1.2 kg/m3
18200 kPa	953.7 ± 1.2 kg/m3
18226 kPa	953.7 ± 1.2 kg/m3
18227 kPa	953.7 ± 1.2 kg/m3
18250 kPa	953.7 ± 1.2 kg/m3
18255 kPa	953.7 ± 1.2 kg/m3
18275 kPa	953.8 ± 1.2 kg/m3
18290 kPa	953.7 ± 1.2 kg/m3
18320 kPa	953.8 ± 1.2 kg/m3
18350 kPa	953.7 ± 1.2 kg/m3
18386 kPa	953.8 ± 1.2 kg/m3
